# Test results as given in patent US20160287666A1 (priority 2015, published 2016).
# Ends that are not written are not given here.
# How the values were obtained:
# [1] = target: T1, human Nav1.6 (Homo sapiens, UniProt Q9UQD0); assay type: cell-based
# [2] = system: CFA-induced thermal hyperalgesia; design: species or system mice; settings: mouse, in vivo; for CFA-induced thermal hyperalgesia (thermal latency, Hargreaves test): sc
# [3] = system: CFA-induced tactile allodynia; design: species or system mice; settings: mouse, in vivo
# [4] = system: thermal pain; design: species or system mice; settings: in vivo
# [5] = system: carrageenan-induced thermal hyperalgesia; design: species or system mice; settings: mouse, in vivo
# [6] = system: acute thermal pain; settings: rat, in vivo
# [7] = system: acute thermal pain; settings: rat, in vivo; remark: listed apart in the source
# [8] = system: injury-induced pain (formalin); settings: rat, in vivo
# [9] = target: human Nav1.7 (Homo sapiens, UniProt Q15858, W1161R); assay type: cell-based
# [10] = target: T1, human Nav1.6; assay: cell-based or functional assay
# [11] = target: human Nav1.7 (human) (UniProt Q15858); assay: cell-based or functional assay
# T1 sequence (Q9UQD0 whole entry): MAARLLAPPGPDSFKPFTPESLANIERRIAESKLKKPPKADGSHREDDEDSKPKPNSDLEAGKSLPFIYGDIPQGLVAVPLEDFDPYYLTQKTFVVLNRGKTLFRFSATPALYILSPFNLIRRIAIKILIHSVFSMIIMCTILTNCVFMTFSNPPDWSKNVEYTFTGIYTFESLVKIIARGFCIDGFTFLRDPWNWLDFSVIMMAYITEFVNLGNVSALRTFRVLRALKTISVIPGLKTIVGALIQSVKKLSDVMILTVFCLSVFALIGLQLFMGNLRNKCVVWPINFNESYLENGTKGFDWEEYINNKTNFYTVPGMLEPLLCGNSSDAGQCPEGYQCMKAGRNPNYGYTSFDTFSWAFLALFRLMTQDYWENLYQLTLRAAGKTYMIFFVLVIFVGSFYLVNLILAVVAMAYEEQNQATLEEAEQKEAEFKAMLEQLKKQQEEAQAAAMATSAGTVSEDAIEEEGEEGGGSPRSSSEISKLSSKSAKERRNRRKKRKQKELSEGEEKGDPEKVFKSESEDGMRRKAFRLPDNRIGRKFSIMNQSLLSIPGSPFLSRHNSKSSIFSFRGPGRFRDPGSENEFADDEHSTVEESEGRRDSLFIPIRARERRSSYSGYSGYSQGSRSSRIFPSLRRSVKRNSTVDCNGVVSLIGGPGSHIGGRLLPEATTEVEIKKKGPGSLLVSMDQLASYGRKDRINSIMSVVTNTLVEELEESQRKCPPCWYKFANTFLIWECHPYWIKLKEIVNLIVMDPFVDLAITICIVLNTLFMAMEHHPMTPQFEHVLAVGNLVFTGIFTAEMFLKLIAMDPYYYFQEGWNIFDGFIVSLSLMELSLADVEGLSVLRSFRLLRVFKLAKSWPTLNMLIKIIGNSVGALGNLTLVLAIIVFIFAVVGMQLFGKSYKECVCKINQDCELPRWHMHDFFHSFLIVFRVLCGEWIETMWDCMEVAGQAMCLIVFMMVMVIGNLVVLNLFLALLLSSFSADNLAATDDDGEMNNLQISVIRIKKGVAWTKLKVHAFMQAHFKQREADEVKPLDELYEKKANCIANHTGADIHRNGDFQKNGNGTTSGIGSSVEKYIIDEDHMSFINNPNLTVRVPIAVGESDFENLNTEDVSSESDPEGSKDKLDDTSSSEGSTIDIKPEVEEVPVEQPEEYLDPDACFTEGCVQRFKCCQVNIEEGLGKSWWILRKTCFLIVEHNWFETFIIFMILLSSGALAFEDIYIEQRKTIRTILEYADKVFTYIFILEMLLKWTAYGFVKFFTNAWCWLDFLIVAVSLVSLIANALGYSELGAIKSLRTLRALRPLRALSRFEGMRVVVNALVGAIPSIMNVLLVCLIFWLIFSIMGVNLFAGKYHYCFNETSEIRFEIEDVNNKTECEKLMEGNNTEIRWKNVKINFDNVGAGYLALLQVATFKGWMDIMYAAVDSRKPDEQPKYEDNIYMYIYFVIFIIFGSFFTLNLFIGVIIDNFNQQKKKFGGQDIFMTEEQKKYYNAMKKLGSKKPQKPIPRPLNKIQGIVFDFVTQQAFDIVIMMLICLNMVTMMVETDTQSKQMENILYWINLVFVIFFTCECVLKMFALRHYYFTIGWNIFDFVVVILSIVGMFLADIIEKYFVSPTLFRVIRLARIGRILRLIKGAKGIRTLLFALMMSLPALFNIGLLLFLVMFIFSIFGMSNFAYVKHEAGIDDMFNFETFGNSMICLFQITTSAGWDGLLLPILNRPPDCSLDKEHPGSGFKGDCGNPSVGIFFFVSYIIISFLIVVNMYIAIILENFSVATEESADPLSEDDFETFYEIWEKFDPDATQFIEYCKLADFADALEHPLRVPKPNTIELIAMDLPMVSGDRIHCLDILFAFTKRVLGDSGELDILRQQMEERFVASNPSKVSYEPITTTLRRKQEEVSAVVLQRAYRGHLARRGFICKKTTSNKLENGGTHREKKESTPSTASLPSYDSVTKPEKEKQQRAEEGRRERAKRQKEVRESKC
substance,measurement,setting,value
Ac-QCQKWMQTCDAERKCCEGFSCTLWCKKKLW-NH2 [(-GP) N-Ac-NV1D2974-NH2],selectivity towards Nav1.7 compared to recombinant Protoxin-II,[1],improved selectivity
Ac-QCQKWMQTCDRERKCCEGFVCTLWCRKKLW-NH2 [(-GP) N-Ac-NV1D3034-NH2],selectivity towards Nav1.7 compared to recombinant Protoxin-II,[1],improved selectivity
GPACQKWMQTCDANRKCCEGFSCRLWCKKKLW-OH (cysteine pairing not given here) [NV1D3587],selectivity towards Nav1.7 compared to recombinant Protoxin-II,[1],improved selectivity
GPACQKWMQTCDRNRKCCEGFVCTLWCRKKLW-OH (cysteine pairing not given here) [NV1D3541],selectivity towards Nav1.7 compared to recombinant Protoxin-II,[1],improved selectivity
GPQCQKWMQSCDRERKCCEGFVCTLWCRKKLW-OH (cysteine pairing not given here) [NV1D3359],selectivity towards Nav1.7 compared to recombinant Protoxin-II,[1],improved selectivity
GPQCQKWMQTCDAERKCCEGFSCTLWCKKKLW-NH2 [NV1D2974-NH2],selectivity towards Nav1.7 compared to recombinant Protoxin-II,[1],improved selectivity
GPQCQKWMQTCDAERKCCEGFSCTLWCKKKLW-OH (cysteine pairing not given here) [NV1D2974],selectivity towards Nav1.7 compared to recombinant Protoxin-II,[1],improved selectivity
GPQCQKWMQTCDAERKCCEGFVCRLWCKKKLW-NH2 [NV1D2775-NH2],selectivity towards Nav1.7 compared to recombinant Protoxin-II,[1],improved selectivity
GPQCQKWMQTCDAERKCCEGFVCRLWCKKKLW-OH (cysteine pairing not given here) [NV1D2775],"anti-hyperalgesic effect first seen, time post-pump implantation",[2],4 h
same,"thermal latency returned to the control level, time post pump implantation",[2],≤ 48 h
same,"time at which the effect reached the maximum, thermal test",[2],8 h
same,"CFA-induced thermal hyperalgesia (thermal latency, Hargreaves test)",[2],reached values close to the cut-off
same,"tactile threshold returned to the control level, time post pump implantation",[3],≤ 48 h
same,"time at which the effect reached the maximum, tactile test",[3],8 h
same,analgesia in the mouse hotplate test (FIG. 8),[4],significant analgesia
same,hotplate latency,[4]; mouse,reached values near cut-off
same,analgesia (thermal withdrawal latency) in the carrageenan study,[5],significant analgesia
same,tail flick test latency,[6],significant efficacy
same,hot plate test latency,[7],significant efficacy
same,formalin test flinches,[8],significant efficacy
GPQCQKWMQTCDARRKCCEGFVCRLWCKKKLW-OH (cysteine pairing not given here) [NV1D3006],hNav1.7 QP % blk,[9],52.3% @ 10 nM
GPQCQKWMQTCDRERKCCEGFVCTLWCRKKLW-NH2 [NV1D3034-NH2],selectivity towards Nav1.7 compared to recombinant Protoxin-II,[1],improved selectivity
GPQCQKWMQTCDRERKCCEGFVCTLWCRKKLW-NH-butyl [NV1D3034-NH-butyl],selectivity towards Nav1.7 compared to recombinant Protoxin-II,[1],improved selectivity
GPQCQKWMQTCDRERKCCEGFVCTLWCRKKLW-NH-methyl [NV1D3034-NH-methyl],selectivity towards Nav1.7 compared to recombinant Protoxin-II,[1],improved selectivity
same,CFA-induced thermal hyperalgesia,[2],readily reversed
GPQCQKWMQTCDRERKCCEGFVCTLWCRKKLW-OH (cysteine pairing not given here) [NV1D3034],"CFA-induced thermal hyperalgesia (thermal latency, Hargreaves test)",[2],completely reversed
same,tail flick test latency,[6],significant efficacy
same,hot plate test latency,[7],significant efficacy
same,formalin test flinches,[8],significant efficacy
GPQCQKWMQTCDRERKCCEGFVCTLWCRKKLWGSAPAPAPAPAPGSCCNCSSKWCRDHSRCC [NV1D3799],hNav1.7 QP % blk,[9],22.2% @ 30 nM
GPQCQKWMQTCDRERKCCQGFVCTLWCRKKLW-OH (cysteine pairing not given here) [NV1D3388],selectivity towards Nav1.7 compared to recombinant Protoxin-II,[1],improved selectivity
GPQCQKWMQTCDRNRKCCEGFVCTLWCRKKLW-OH (cysteine pairing not given here) [NV1D3044],selectivity towards Nav1.7 compared to recombinant Protoxin-II,[1],improved selectivity
GPQCQKWMQTCDRTRKCCEGFVCTLWCRKKLW-NH2 [NV1D3368-NH2],selectivity towards Nav1.7 compared to recombinant Protoxin-II,[1],improved selectivity
same,CFA-induced thermal hyperalgesia,[2],readily reversed
GPQCQKWMQTCDRTRKCCEGFVCTLWCRKKLW-OH (cysteine pairing not given here) [NV1D3368],selectivity towards Nav1.7 compared to recombinant Protoxin-II,[1],improved selectivity
same,"CFA-induced thermal hyperalgesia (thermal latency, Hargreaves test)",[2],fully reversed
GPYCQKWMQTCDANRKCCEGFSCRLWCKKKLW-NH2 [NV1D3586-NH2],selectivity towards Nav1.7 compared to recombinant Protoxin-II,[1],improved selectivity
GPYCQKWMQTCDANRKCCEGFSCRLWCKKKLW-OH (cysteine pairing not given here) [NV1D3586],selectivity towards Nav1.7 compared to recombinant Protoxin-II,[1],improved selectivity
recombinant Protoxin-II (peptide),IC50 (QPatch electrophysiology assay),[10],6.2e-08 M
same,ratio of IC50 for Nav1.6 to IC50 for Nav1.7 (QPatch),[10],28 fold
wild type Protoxin-II (peptide),"IC50 (FLIPR assay, veratridine-induced membrane depolarization)",[11],4 nM
